The source of these data is patent US6740642B2, “Macrolides with antibacterial activity” (BAsilea Parmaceutica AG, priority 2000, dated 2004).

Common to all, as to test: MIC, standard microdilution
On the technique in general: In broth dilution the organism is exposed to a series of concentrations in liquid medium.

For one assay, the system named is S. aureus 1086. The class given is cell-based, Staphylococcus aureus. Particulars: for MIC: Staphylococcus aureus, read-out: minimum inhibitory concentration (MIC). The text has this: (§1) The antibacterial activities of the compounds have been determined by standard microdilution technique (National Committee for Clinical Laboratory Standards. 1997. Methods for dilution antimicrobial susceptibility tests for bacteria that grow aerobically, 4th edition. Approved standard M7-A4. National Committee for Clinical Laboratory Standards, Wayne, Pa.).

The next assay concerns S. aureus 745. The class given is cell-based, Staphylococcus aureus. As to conditions: for MIC: Staphylococcus aureus, read-out: minimum inhibitory concentration (MIC).
Source text: as §1

The test system of another assay is S. aureus ATCC29213. The format is cell-based, Staphylococcus aureus. Particulars: for MIC: Staphylococcus aureus, read-out: minimum inhibitory concentration (MIC).
Source text: as §1

The subject of another assay is E. coli ATCC25922. The class given is cell-based. Particulars: for MIC: Escherichia coli, read-out: minimum inhibitory concentration (MIC).
Source text: as §1

The test system of assay [1] is P. aeruginosa ATCC27853 (+Ery. 32 μg/ml). The format is cell-based.
Source text: as §1

For the next assay, the system named is St. pneumoniae 1/1. The format is cell-based, Streptococcus pneumoniae. Particulars: for MIC: Streptococcus pneumoniae, read-out: minimum inhibitory concentration (MIC).
Source text: as §1

A further assay has as its system St. pneumoniae 1/4. The class given is cell-based, Streptococcus pneumoniae. Particulars: for MIC: Streptococcus pneumoniae, read-out: minimum inhibitory concentration (MIC).
Source text: as §1

Another assay concerns St. pneumoniae 12288. The format is cell-based, Streptococcus pneumoniae. Particulars: for MIC: Streptococcus pneumoniae, read-out: minimum inhibitory concentration (MIC).
Source text: as §1

Another assay has as its system St. pneumoniae SL199T. The class given is cell-based, Streptococcus pneumoniae. Particulars: for MIC: Streptococcus pneumoniae, read-out: minimum inhibitory concentration (MIC).
Source text: as §1

Values after ≈ are worked out from the molar mass of the structure shown.

On to `CC[C@H]1OC(=O)[C@H](C)C(=O)[C@H](C)[C@@H](O[C@@H]2O[C@H](C)C[C@H](N(C)C)[C@H]2O)[C@](C)(OC)C[C@@H](C)C(=O)[C@H](C)[C@H]2[C@H](SCCn3ccc(-c4cccnc4)n3)C(=O)O[C@@]21C` [Compound I-16, (3S,3aR,4R,6R,8R,9R,10R,12R,15R,15aS)-15-Ethyloctahydro-8-methoxy-4,6,8,10,12,15a-hexamethyl-3-[[2-[3-(3-pyridinyl)-1H-pyrazol-1-yl]-ethyl]thio]-9-[[3,4,6-trideoxy-3-(dimethylamino)-β-D-xylo-hexopyranosyl]oxy]-2H-furo[2,3-c]oxacyclotetradecin-2,5,11,13(3H,6H,12H)-tetrone], for which the MIC with S. aureus 1086 is at most 0.12 µg/mL; with S. aureus 745, over 16 µg/mL; in the assay with S. aureus ATCC29213 it was at most 0.12 µg/mL; in the assay on E. coli ATCC25922, over 16 µg/mL; in the assay on St. pneumoniae 1/1, at most 0.12 µg/mL; in the assay with St. pneumoniae 1/4, at most 0.12 µg/mL. The MIC in the assay on St. pneumoniae 12288 and in the assay on St. pneumoniae SL199T was 0.5 µg/mL (≈ 0.613 µM) each time. For the same compound, in assay [1], the “minimum inhibitory concentration (MIC)” value is over 16 µg/mL.
Consider `CC[C@H]1OC(=O)[C@H](C)C(=O)[C@H](C)[C@@H](O[C@@H]2O[C@H](C)C[C@H](N(C)C)[C@H]2O)[C@](C)(OC)C[C@@H](C)C(=O)[C@H](C)[C@H]2[C@H](SCCn3ccc(-c4ccncc4)n3)C(=O)O[C@@]21C` [Compound I-19, (3S,3aR,4R,6R,8R,9R,10R,12R,15R,15aS)-15-Ethyloctahydro-8-methoxy-4,6,8,10,12,15a-hexamethyl-3-[[2-[3-(4-pyridinyl)-1H-pyrazol-1-yl]ethyl]thio]-9-[[3,4,6-trideoxy-3-(dimethylamino)-β-D-xylo-hexopyranosyl]oxy]-2H-furo[2,3-c]oxacyclotetradecin-2,5,11,13(3H,6H,12H)-tetrone], for which the MIC with S. aureus 1086 is at most 0.12 µg/mL; in the assay with S. aureus 745, over 16 µg/mL; in the assay on S. aureus ATCC29213, at most 0.12 µg/mL; in the assay on E. coli ATCC25922, over 16 µg/mL; in the assay with St. pneumoniae 1/1, at most 0.12 µg/mL; in the assay with St. pneumoniae 1/4, at most 0.12 µg/mL. Further, the MIC in the assay on St. pneumoniae 12288 was 4 µg/mL (≈ 4.91 µM); with St. pneumoniae SL199T, 1 µg/mL (≈ 1.23 µM). Besides, in assay [1], the “minimum inhibitory concentration (MIC)” value is over 16 µg/mL.
`CC[C@H]1OC(=O)[C@H](C)C(=O)[C@H](C)[C@@H](O[C@@H]2O[C@H](C)C[C@H](N(C)C)[C@H]2O)[C@](C)(OC)C[C@@H](C)C(=O)[C@H](C)[C@H]2[C@H](SCCn3cnc(-c4cccnc4)c3)C(=O)O[C@@]21C` [Compound I-20, (3S,3aR,4R,6R,8R,9R,10R,12R,15R,15aS)-15-Ethyloctahydro-8-methoxy-4,6,8,10,12,15a-hexamethyl-3-[[2-[4-(3-pyridinyl)-1H-imidazol-1-yl]ethyl]thio]-9-[[3,4,6-trideoxy-3-(dimethylamino)-β-D-xylo-hexopyranosyl]oxy]-2H-furo[2,3-c]oxacyclotetradecin-2,5,11,13(3H,6H,12H)-tetrone]: the MIC in the assay on S. aureus 1086 is 0.25 µg/mL (≈ 0.307 µM); in the assay with S. aureus 745, over 16 µg/mL; with S. aureus ATCC29213, 0.25 µg/mL (≈ 0.307 µM); in the assay with E. coli ATCC25922 it was over 16 µg/mL; with St. pneumoniae 1/1, at most 0.12 µg/mL; with St. pneumoniae 1/4 it was at most 0.12 µg/mL. The MIC with St. pneumoniae 12288 and in the assay on St. pneumoniae SL199T was 2 µg/mL (≈ 2.45 µM) throughout. Also, in assay [1], the “minimum inhibitory concentration (MIC)” value is over 16 µg/mL.
Regarding `CC[C@H]1OC(=O)[C@H](C)C(=O)[C@H](C)[C@@H](O[C@@H]2O[C@H](C)C[C@H](N(C)C)[C@H]2O)[C@](C)(OC)C[C@@H](C)C(=O)[C@H](C)[C@H]2[C@H](SCCn3cncn3)C(=O)O[C@@]21C` [Compound I-21, (3S,3aR,4R,6R,8R,9R,10R,12R,15R,15aS)-15-Ethyloctahydro-8-methoxy-4,6,8,10,12,15a-hexamethyl-3-[[2-[1H-1,2,4-triazol-1-yl]ethyl]thio]-9-[[3,4,6-trideoxy-3-(dimethylamino)-β-D-xylo-hexopyranosyl]oxy]-2H-furo[2,3-c]oxacyclotetradecin-2,5,11,13(3H,6H,12H)-tetrone], the MIC in the assay with S. aureus 1086 was 0.25 µg/mL (≈ 0.338 µM); in the assay with S. aureus 745, over 16 µg/mL; with S. aureus ATCC29213 it was 0.25 µg/mL (≈ 0.338 µM); in the assay with E. coli ATCC25922, over 16 µg/mL; with St. pneumoniae 1/1 it was at most 0.12 µg/mL; in the assay with St. pneumoniae 1/4, over 16 µg/mL. Besides, the MIC with St. pneumoniae 12288 is over 16 µg/mL; with St. pneumoniae SL199T, 8 µg/mL (≈ 10.8 µM). Besides, the “minimum inhibitory concentration (MIC)” value in assay [1] was over 16 µg/mL.
As for `CC[C@H]1OC(=O)[C@H](C)C(=O)[C@H](C)[C@@H](O[C@@H]2O[C@H](C)C[C@H](N(C)C)[C@H]2O)[C@](C)(OC)C[C@@H](C)C(=O)[C@H](C)[C@H]2[C@H](SCCn3ccnc3)C(=O)O[C@@]21C` [Compound I-22], the “minimum inhibitory concentration (MIC)” value was 0.25 µg/mL (≈ 0.339 µM) with S. aureus 1086; over 16 µg/mL in the assay with S. aureus 745; 0.25 µg/mL (≈ 0.339 µM) in the assay with S. aureus ATCC29213; over 16 µg/mL in the assay with E. coli ATCC25922; over 16 µg/mL in [1]; “<=0.12 μg/ml” in the assay with St. pneumoniae 1/1. Besides, the “minimum inhibitory concentration (MIC)” value in the assay with St. pneumoniae 1/4 is 1 µg/mL (≈ 1.36 µM); in the assay on St. pneumoniae 12288 it was over 16 µg/mL; in the assay on St. pneumoniae SL199T, 8 µg/mL (≈ 10.8 µM).
As for `CC[C@H]1OC(=O)[C@H](C)C(=O)[C@H](C)[C@@H](O[C@@H]2O[C@H](C)C[C@H](N(C)C)[C@H]2O)[C@](C)(OC)C[C@@H](C)C(=O)[C@H](C)[C@H]2[C@H](C#N)C(=O)O[C@@]21C` [Compound I-23, (3R,3aS,4R,6R,8R,9R,10R,12R,15R,15aS)-15-Ethyltetradecahydro-8-methoxy-4,6,8,10,12,15a-hexamethyl-2,5,11,13-tetraoxo-9-[[3,4,6-trideoxy-3-(dimethylamino)-β-D-xylo-hexopyranosyl]oxy]-2H-furo[2,3-c]oxacyclotetradecin-3-carbonitrile], the MIC with S. aureus 1086 was at most 0.25 µg/mL; in the assay with S. aureus 745, over 16 µg/mL; with S. aureus ATCC29213, at most 0.25 µg/mL; with E. coli ATCC25922, over 16 µg/mL; in the assay with St. pneumoniae 1/1, at most 0.5 µg/mL; in the assay with St. pneumoniae 1/4, 8 µg/mL (≈ 12.6 µM). For the same compound, the MIC with St. pneumoniae 12288 is over 32 µg/mL; in the assay on St. pneumoniae SL199T, 32 µg/mL (≈ 50.3 µM). Moreover, the “minimum inhibitory concentration (MIC)” value in assay [1] was over 16 µg/mL.
On to `CC[C@H]1OC(=O)[C@H](C)C(=O)[C@H](C)[C@@H](O[C@@H]2O[C@H](C)C[C@H](N(C)C)[C@H]2O)[C@](C)(OC)C[C@@H](C)C(=O)[C@H](C)[C@H]2[C@H](S(=O)(=O)CCCc3ccccc3)C(=O)O[C@@]21C` [Compound I-24, (3S,3aR,4R,6R,8R,9R,10R,12R,15R,15aS)-15-Ethyloctahydro-8-methoxy-4,6,8,10,12,15a-hexamethyl-3-[(3-phenylpropyl)sulfonyl]-9-[[3,4,6-trideoxy-3-(dimethylamino)-β-D-xylo-hexopyranosyl]oxy]-2H-furo[2,3-c]oxacyclotetradecin-2,5,11,13(3H,6H,12H)-tetrone], for which the MIC in the assay with S. aureus 1086 was 1 µg/mL (≈ 1.26 µM); in the assay with S. aureus 745, over 16 µg/mL; in the assay with S. aureus ATCC29213, 1 µg/mL (≈ 1.26 µM); in the assay with E. coli ATCC25922 it was over 16 µg/mL; with St. pneumoniae 1/1, at most 0.5 µg/mL; with St. pneumoniae 1/4, 1 µg/mL (≈ 1.26 µM). Besides, the MIC in the assay with St. pneumoniae 12288 and in the assay on St. pneumoniae SL199T was 16 µg/mL (≈ 20.2 µM) throughout. In addition, in [1], the “minimum inhibitory concentration (MIC)” value is over 16 µg/mL.
In the case of `CC[C@H]1OC(=O)[C@H](C)C(=O)[C@H](C)[C@@H](O[C@@H]2O[C@H](C)C[C@H](N(C)C)[C@H]2O)[C@](C)(OC)C[C@@H](C)C(=O)[C@H](C)[C@H]2CC(=O)O[C@@]21C` [Compound I-25, (3aR,4R,6R,8R,9R,10R,12R,15R,15aS)-15-Ethyloctahydro-8-methoxy-4,6,8,10,12,15a-hexamethyl-9-[[3,4,6-trideoxy-3-(dimethylamino)-β-D-xylo-hexopyranosyl]oxy]-2H-furo[2,3-c]oxacyclotetradecin-2,5,11,13 (3H,6H,12H)-tetrone], the MIC was 0.5 µg/mL (≈ 0.817 µM) in the assay with S. aureus 1086; over 16 µg/mL in the assay with S. aureus 745; 0.5 µg/mL (≈ 0.817 µM) in the assay on S. aureus ATCC29213; over 16 µg/mL in the assay with E. coli ATCC25922; at most 0.12 µg/mL with St. pneumoniae 1/1; 16 µg/mL (≈ 26.2 µM) with St. pneumoniae 1/4. Further, the MIC in the assay with St. pneumoniae 12288 and with St. pneumoniae SL199T was over 16 µg/mL each time. The “minimum inhibitory concentration (MIC)” value in [1] was over 16 µg/mL.
Consider `CC[C@H]1OC(=O)[C@H](C)C(=O)[C@H](C)[C@@H](O[C@@H]2O[C@H](C)C[C@H](N(C)C)[C@H]2O)[C@](C)(OC)C[C@@H](C)C(=O)[C@H](C)[C@H]2[C@H](SCCCn3cnc4c(N)ncnc43)C(=O)O[C@@]21C` [Compound I-26, (3S,3aR,4R,6R,8R,9R,10R,12R,15R,15aS)-3-[[3-[6-Amino-9H-purine-9-yl]propyl]thio]-15-ethyloctahydro-8-methoxy-4,6,8,10,12,15a-hexamethyl-9-[[3,4,6-trideoxy-3-(dimethylamino)-β-D-xylo-hexopyranosyl]oxy]-2H-furo[2,3-c]oxacyclotetradecin-2,5,11,13(3H,6H,12H)-tetrone], for which the MIC is at most 0.12 µg/mL in the assay on S. aureus 1086; over 16 µg/mL with S. aureus 745; at most 0.12 µg/mL with S. aureus ATCC29213; 16 µg/mL (≈ 19.5 µM) in the assay with E. coli ATCC25922; at most 0.25 µg/mL in the assay with St. pneumoniae 1/1; at most 0.25 µg/mL with St. pneumoniae 1/4. The MIC in the assay on St. pneumoniae 12288 is 0.25 µg/mL (≈ 0.305 µM); in the assay with St. pneumoniae SL199T it was at most 0.25 µg/mL. Also, in assay [1], the “minimum inhibitory concentration (MIC)” value was over 16 µg/mL.
